Patent US4228174A, “Clavulanic acid ethers” (priority 1975, dated 1980)
Where a name gives a salt, the structure may show the parent alone.

Columns and labels:
[1] = Toxicity in mice, sub-cutaneous administration (LD50); conditions: mouse, in vivo, sc
[2] = target: T1, Pseudomonas dalgleish β-lactamase (Pseudomonas aeruginosa, UniProt P16897); experiment: β-lactamase inhibition I50; format: biochemical
T1 construct: host or cells: Pseudomonas aeruginosa Dalgleish

[3] = target: Klebsiella aerogenes E70 β-lactamase; experiment: β-lactamase inhibition I50; format: biochemical
[4] = target: Proteus mirabilis C889 β-lactamase; experiment: β-lactamase inhibition I50; format: biochemical
[5] = target: T2, Staphylococcus aureus Russell β-lactamase (Staphylococcus aureus, UniProt P00807); experiment: β-lactamase inhibition I50; format: biochemical
T2 construct: host or cells: Staphylococcus aureus Russell

[6] = target: T3, Escherichia coli JT4 β-lactamase (Escherichia coli, UniProt P62593); experiment: β-lactamase inhibition I50; format: biochemical
T3 construct: host or cells: Escherichia coli JT4

[7] = Blood level in test mammals; format: in vivo; conditions: compared with an equivalent amount of the salt of clavulanic acid
[8] = target: T4, Escherichia coli JT410 β-lactamase (Escherichia coli, UniProt P00811); experiment: β-lactamase inhibition I50; format: biochemical
T4 construct: host or cells: Escherichia coli JT410

P. moig, Cr. β-lactamase = experiment: β-lactamase inhibition I50; format: biochemical
[9] = target: Pseudomonas aeruginosa β-lactamase; experiment: β-lactamase inhibition I50; format: biochemical
[10] = tested on: Staphylococcus aureus Russell; experiment: Standard MIC test of ampicillin in the presence of compounds of the invention; format: cell-based; conditions: ampicillin alone, read-out: Concentration of ampicillin in the absence of synergist that did not inhibit growth
Procedure: b. When tested in standard MIC tests in combination with ampicillin the compounds of this invention are seen to enhance the effectiveness of the penicillin against various gram-positive and gram-negative organisms such as strains of Staphylococcus aureus Russell, Klebsiella aerogenes, Proteus mirabilis and Escherichia coli: for example the following MIC values against Staphylococcus aureus Russell were obtained for ampicillin in the presence of 1 μg/ml of certain compounds of the invention:
None of the synergists inhibited the growth of the test organism at 5 μg/ml.

E. coli JT 68 = experiment: MIC of ampicillin alone and together with sodium O-methylclavulanate; format: cell-based; conditions: Escherichia coli, JT68, 0 μg/ml of sodium O-methylclavulanate
From the text: (§1) c. MIC values of ampicillin alone and together with sodium O-methylclavulanate against 3 strains of Straphylococcus aureus and 3 strains of R^+ E. coli

E. coli JT 98 = experiment: as above; format: cell-based; conditions: Escherichia coli, JT98, 0 μg/ml of sodium O-methylclavulanate
From the text: as §1

Staph. Russell = experiment: as above; format: cell-based; conditions: Staphylococcus aureus, 0 μg/ml of sodium O-methylclavulanate
From the text: as §1

Staph. H = experiment: as above; format: cell-based; conditions: Staphylococcus aureus, 0 μg/ml of sodium O-methylclavulanate
From the text: as §1

Staph. M B9 = experiment: as above; format: cell-based; conditions: Staphylococcus aureus, 0 μg/ml of sodium O-methylclavulanate
From the text: as §1

E. coli JT 39 = experiment: as above; format: cell-based; conditions: Escherichia coli, JT39, 0 μg/ml of sodium O-methylclavulanate
From the text: as §1

[11] = tested on: E. coli JT 39 (R+) infection; experiment: CD50 of amoxycillin with a salt of O-ethylclavulanic acid or clavulanic acid, similar test dosing at 1, 3 and 5 hours; format: in vivo; conditions: (×3) dosing at 1, 3 and 5 hours post infection
Procedure: (§2) e. CD50 values of amoxycillin alone and together with a salt of O-ethylclavulanate acid against an E. coli JT 39 (R^+) infection. The test compounds were administered to mice sub-cutaneously in freshly prepared buffered saline (0.4 mg/ml) at 1 hour and 5 hours post inter peritoneal infection.
In a similar test dosing at 1, 3 and 5 hours post infection the following results were obtained: […]

[12] = tested on: E. coli JT 39 (R+) infection; experiment: CD50 with sodium O-methylclavulanate or sodium clavulanate as synergist, dosing at 1 and 5 hours; format: in vivo; conditions: (×2) sub-cutaneous at 1 and 5 hours post infection
Procedure: d. […]
The test compounds were administered sub-cutaneously in freshly prepared buffered saline at 1 hour and 5 hours post intra peritoneal infection: […]

[13] = tested on: E. coli JT 39 (R+) infection; experiment: CD50 of amoxycillin with a salt of O-ethylclavulanic acid or clavulanic acid, dosing at 1 and 5 hours; format: in vivo; conditions: (×2) mice, sub-cutaneous at 1 and 5 hours
Procedure: as §2

[14] = Blood levels in mice after oral administration; format: in vivo; conditions: mouse, 20 mg/kg, read-out: Blood level
Procedure: b. Blood levels in mice after oral administration of 20 mg/kg of sodium O-methylclavulanate

[15] = tested on: 3 strains of Straphylococcus aureus and 3 strains of R+ E. coli; experiment: MIC of sodium O-methylclavulanate alone against each test organism; format: cell-based, Staphylococcus aureus; E. coli; conditions: read-out: MIC of sodium O-methylclavulanate against each test organism
Procedure: as §1
The MIC of sodium O-methylclavulanate against each test organism was in the range 20-40 μg/ml.

[16] = Blood levels in mice after sub-cutaneous administration; format: in vivo; conditions: mouse, sc, 50 mg/kg, read-out: Blood level, mean result for 5 mice; for concentration at 0.5 h: 30 min; for concentration at 0.75 h: 45 min; for concentration at 1 h: 60 min; for concentration at 1.5 h: 90 min
Procedure: a. Blood levels in mice after sub-cutaneous administration of 50 mg/kg of a solution of sodium O-methylclavulanate

[17] = tested on: Klebsiella I.112 infection; experiment: CD50 of amoxycillin alone and with synergist, oral dosing at 1, 3 and 5 hours; format: in vivo; conditions: (×3) mice, oral at 1, 3 and 5 hours post infection
Procedure: f. CD50 values of amoxycillin alone and together with a salt of O-methylclavulanic acid or O-ethylclavulanic acid against a Klebsiella I.112 infection. The test compounds were administered orally to mice at 1, 3 and 5 hours post inter peritoneal infection.
[In these tests amoxycillin trihydrate equivalent to the stated weights of amoxycillin were used].

[18] = columns Synergist = Salt of clavulanic acid

T2 sequence (P00807 25-281): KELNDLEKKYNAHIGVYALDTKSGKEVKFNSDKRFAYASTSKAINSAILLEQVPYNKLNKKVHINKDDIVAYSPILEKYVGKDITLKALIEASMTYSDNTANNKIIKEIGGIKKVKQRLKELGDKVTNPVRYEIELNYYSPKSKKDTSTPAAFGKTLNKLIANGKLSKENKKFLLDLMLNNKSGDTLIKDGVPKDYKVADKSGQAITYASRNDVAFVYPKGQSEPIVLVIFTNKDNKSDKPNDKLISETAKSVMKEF
T3 sequence (P62593 24-286 limits assumed): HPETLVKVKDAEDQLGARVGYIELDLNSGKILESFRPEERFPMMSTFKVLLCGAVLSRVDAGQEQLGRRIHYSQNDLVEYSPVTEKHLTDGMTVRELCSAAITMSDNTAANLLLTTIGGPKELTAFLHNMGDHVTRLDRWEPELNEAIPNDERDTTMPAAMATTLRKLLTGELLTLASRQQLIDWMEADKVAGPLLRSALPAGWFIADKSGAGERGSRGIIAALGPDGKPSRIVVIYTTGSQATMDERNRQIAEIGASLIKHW
T1 sequence (P16897 18-288): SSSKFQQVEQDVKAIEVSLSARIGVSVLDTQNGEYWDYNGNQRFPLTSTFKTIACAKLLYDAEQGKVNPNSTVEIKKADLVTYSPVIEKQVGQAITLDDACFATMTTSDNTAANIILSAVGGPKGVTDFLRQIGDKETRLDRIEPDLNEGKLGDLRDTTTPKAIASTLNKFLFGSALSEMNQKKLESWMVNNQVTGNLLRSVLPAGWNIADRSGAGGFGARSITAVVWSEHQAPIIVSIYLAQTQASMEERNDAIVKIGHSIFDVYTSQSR
T4 sequence (P00811 20-377): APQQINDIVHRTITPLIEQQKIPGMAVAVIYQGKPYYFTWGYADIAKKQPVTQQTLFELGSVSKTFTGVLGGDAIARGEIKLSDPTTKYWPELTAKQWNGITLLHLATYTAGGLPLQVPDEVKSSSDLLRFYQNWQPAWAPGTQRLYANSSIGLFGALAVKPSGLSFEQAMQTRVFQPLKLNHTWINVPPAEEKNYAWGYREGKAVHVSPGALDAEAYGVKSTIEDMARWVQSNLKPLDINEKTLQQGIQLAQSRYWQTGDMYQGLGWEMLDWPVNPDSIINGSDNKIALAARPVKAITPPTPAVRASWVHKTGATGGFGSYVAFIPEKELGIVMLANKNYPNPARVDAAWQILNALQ

In the case of `N#CCOC/C=C1\O[C@@H]2CC(=O)N2[C@H]1C(=O)O` [Example 12, Sodium 9-O-cyanomethylclavulanate], the LD50 [1] is reported as over 250 mg/kg.

With `O=C(O)[C@H]1/C(=C/COCc2ccccc2)O[C@@H]2CC(=O)N21` [Example 5, Sodium 9-O-benzylclavulanate] the IC50 [2] was 0.0277 µM, the “β-lactamase inhibition I50, Klebsiella aerogenes E70” value [3] was 0.04 µg/mL and the “β-lactamase inhibition I50, Proteus mirabilis C889” value [4] was 0.02 µg/mL. For the same compound, the LD50 [1] was over 250 mg/kg, the IC50 [5] was 0.0173 µM and the IC50 [6] was 0.346 µM.

With `CCOC(=O)COC/C=C1\O[C@@H]2CC(=O)N2[C@H]1C(=O)OCc1ccccc1` [Example 6, Benzyl 9-O-ethoxycarbonylmethylclavulanate] the “β-lactamase inhibition I50, Klebsiella aerogenes E70” value [3] was 0.30 µg/mL, the “β-lactamase inhibition I50, Proteus mirabilis C889” value [4] was 1.0 µg/mL and the IC50 [5] was 0.32 µM. It also gave an IC50 [6] of 0.373 µM.

In the case of `COC/C=C1\O[C@@H]2CC(=O)N2[C@H]1C(=O)O` [salt of O-methylclavulanic acid], the “Blood level after administration, in words” value [7] is reported as “more prolonged blood level”.

In the case of `COC/C=C1\O[C@@H]2CC(=O)N2[C@H]1C(=O)OC` [Example 1, Methyl 9--O--methylclavulanate], the IC50 [8] is reported as 13.6 µM, the “β-lactamase inhibition I50, Klebsiella aerogenes E70” value [3] is reported as 0.25 µg/mL and the “β-lactamase inhibition I50, P. moig, Cr.” value (P. moig, Cr. β-lactamase) is reported as 0.68 µg/mL. The “β-lactamase inhibition I50, Pseudomonas aeruginosa” value [9] was 1.9 µg/mL, the IC50 [5] was 2.2 µM and the IC50 [6] was 3.96 µM.

For `COC(=O)[C@H]1/C(=C/COCc2ccccc2)O[C@@H]2CC(=O)N21` [Example 4, Methyl 9-O-benzylclavulanate], the “β-lactamase inhibition I50, Klebsiella aerogenes E70” value [3] was 0.8 µg/mL, the IC50 [5] was 0.0165 µM and the IC50 [6] was 2.64 µM.

In the case of `COC/C=C1\O[C@@H]2CC(=O)N2[C@H]1C(=O)OCc1ccccc1` [Example 2, Benzyl 9-O-methylclavulanate], the IC50 [2] is reported as under 0.231 µM, the “β-lactamase inhibition I50, Klebsiella aerogenes E70” value [3] is reported as 0.05 µg/mL and the “β-lactamase inhibition I50, Proteus mirabilis C889” value [4] is reported as under 0.07 µg/mL. For the same compound, the “β-lactamase inhibition I50, Pseudomonas aeruginosa” value [9] was 1.4 µg/mL, the IC50 [5] was 0.165 µM and the IC50 [6] was 0.33 µM.

In the case of `CC1(C)S[C@@H]2[C@H](NC(=O)[C@H](N)c3ccccc3)C(=O)N2[C@H]1C(=O)O` [Ampicillin, ampicillin], the MIC [10] is reported as over 250 mg/L, the MIC (E. coli JT 68) is reported as 2560 mg/L and the MIC (E. coli JT 98) is reported as 1280 mg/L. It also gave an MIC (Staph. Russell) of 80 mg/L, an MIC (Staph. H) of 640 mg/L and an MIC (Staph. M B9) of 640 mg/L. It also gave an MIC (E. coli JT 39) of over 2560 mg/L.

In the case of `CC1(C)S[C@@H]2[C@H](NC(=O)[C@H](N)c3ccc(O)cc3)C(=O)N2[C@H]1C(=O)O` [Sodium Amoxycillin], the “CD50 of Sodium Amoxycillin alone” value [11, 18] is reported as over 1000 mg/kg, the ED50 ([11]; Escherichia coli, in Mus musculus, sc, columns Synergist = Salt of O-ethylclavulanic acid, read-out: CD50 of Sodium Amoxycillin alone) is reported as over 1000 mg/kg and the “CD50 of Sodium Amoxycillin alone” value ([12]; columns Synergist = Sodium clavulanate) is reported as over 1000 mg/kg. The ED50 ([12]; Escherichia coli, sc, columns Synergist = Sodium O-methylclavulanate, read-out: CD50 of Sodium Amoxycillin alone) was over 1000 mg/kg, the “CD50 of Sodium Amoxycillin alone” value [13, 18] was over 1000 mg/kg and the ED50 ([13]; Escherichia coli, sc, columns Synergist = Salt of O-ethylclavulanic acid, read-out: CD50 of Sodium Amoxycillin alone) was over 1000 mg/kg.

In the case of `CCOC(=O)COC/C=C1\O[C@@H]2CC(=O)N2[C@H]1C(=O)O` [Example 7, Sodium 9-O-ethoxycarbonylmethylclavulanate], the “β-lactamase inhibition I50, Klebsiella aerogenes E70” value [3] is reported as 0.034 µg/mL, the “β-lactamase inhibition I50, Proteus mirabilis C889” value [4] is reported as 0.025 µg/mL and the IC50 [5] is reported as 0.154 µM. The IC50 [6] was 0.561 µM.

Compound `COC/C=C1\O[C@@H]2CC(=O)N2[C@H]1C(=O)O` [Example 3, Sodium 9-O-methylclavulanate] has a concentration at 0.25 h ([14]; 15 min) of 5.2 µg/mL, a concentration at 0.5 h ([14]; 30 min) of 3.4 µg/mL and a concentration at 0.75 h ([14]; 45 min) of 2.2 µg/mL. The concentration at 1 h ([14]; 60 min) was 1.2 µg/mL, the concentration at 1.5 h ([14]; 90 min) was 0.5 µg/mL and the “β-lactamase inhibition I50, Klebsiella aerogenes E70” value [3] was 0.07 µg/mL. For the same compound, the MIC [15] was 20 to 40 mg/L, the “β-lactamase inhibition I50, Proteus mirabilis C889” value [4] was 0.01 µg/mL and the concentration at 10 min [16] was 14.5 µg/mL. It also gave a concentration at 20 min [16] of 12.8 µg/mL, a concentration at 0.5 h [16] of 7.9 µg/mL and a concentration at 0.75 h [16] of 4.1 µg/mL. For the same compound, the concentration at 1 h [16] was 1.4 µg/mL, the concentration at 1.5 h [16] was 0.48 µg/mL and the IC50 [5] was 0.235 µM. It also gave an IC50 [6] of 0.844 µM.

With `O=C(O)[C@H]1/C(=C/CO)O[C@@H]2CC(=O)N21` [Sodium clavulanate, reference compound] the concentration at 10 min [16] was 9.3 µg/mL, the concentration at 20 min [16] was 8.7 µg/mL and the concentration at 0.5 h [16] was 2.99 µg/mL. The concentration at 0.75 h [16] was 1.95 µg/mL, the concentration at 1 h [16] was 0.5 µg/mL and the concentration at 1.5 h [16] was 0.09 µg/mL.

Work on `CC1(C)S[C@@H]2[C@H](NC(=O)[C@H](N)c3ccc(O)cc3)C(=O)N2[C@H]1C(=O)O` [Amoxycillin] yielded an ED50 [17] of over 1000 mg/kg.
